Results reported in US20210238201A1, “ANTIMICROBIAL COMPOUNDS AND COMPOSITIONS” (AGROFRESH INC., priority 2020, published 2021).
Converted amounts (≈) assume the structure as drawn.

Key:
[1] = tested on: Botrytis cinerea (ATCC #204446); assay: Strawberry in vivo analysis, volatile bioassay on wound-inoculated strawberry; set-up: species or system Botrytis cinerea on strawberry; settings: for phytotoxicity in strawberry in vivo analysis: symptoms of phytotoxicity evaluated daily; for antimicrobial activity against Botrytis cinerea in strawberry in vivo analysis: wound-inoculated, 3 days treatment at 21° C. plus 3 days evaluation
Description: In order to assess the in vivo activity of volatile antimicrobial compounds, a volatile bioassay is developed using strawberry. Fruit (6 to 8) are placed inside a 1 lb clamshell (Packaging Direct Inc.; Product #4341699) with the calyx facing downward. The strawberry fruit are wound-inoculated by pipetting 20 μL of 1×10^6 spore per ml Botrytis cinerea (ATCC #204446) into a wound approximately 5 mm deep and 2.6 mm in width. The clamshell is placed inside a 2.55 L plastic container (Snapware; Model #1098421). A Whatman #1 filter paper (4.25 cm; Cat. No. 1001-042) is placed on a watchglass, which is then placed on top of the closed clamshell lid. For determination of the MIC, test compounds are diluted in acetone, and 400 μl of the solution is added to disks, in duplicate, in a dose dependent manner (for example 0.4 to 50 mg/liter). The acetone is permitted to evaporate for 5 minutes. The plastic containers are then closed and placed for 3 days at 21° C. Clamshells are then removed from the treatment plastic container and placed into separate larger secondary containers for a further 3 days of evaluation at 21° C. During these 3 days, fruit are evaluated daily for incidence and severity of disease and symptoms of phytotoxicity.

[2] = tested on: Escherichia coli (ATCC #25922); assay: in vitro inhibition assay for volatile antimicrobial compounds against bacteria (LB agar); type: cell-based; settings: volatile headspace exposure, 2 days at 23° C.
Description: 12-well (6.5 ml volume per well) microtiter plates are used for the in vitro inhibition assay for volatile antimicrobial compounds. A 3-ml volume of full-strength L^B Agar is added to each well. After cooling, 15 μL of Escherichia coli (ATCC #25922) adjusted to an optical density of 0.02 to 0.035, and further diluted 1/10 is pipetted to the center of the agar. The plate is tilted to distribute bacteria uniformly. Whatman #1 filter disks (1.5 cm; Cat. No. 1001-0155) are placed on the underside of a polyethylene PCR plate sealing film. […] The acetone is permitted to evaporate for 5 minutes. The headspace around the Escherichia coli inoculum is then sealed inside the well by the film with the adhering disk containing the antimicrobial, anti-decay, anti-spoilage, or pathogen control agent. Plates are inverted, placed over the treated disks and sealed to prevent any of the chemical from flaking from the disk and falling onto the inoculated agar. After 2 days of incubation at 23° C., cultures were evaluated for colony growth relative to control.

Alternaria alternata = assay: in vitro inhibition assay for volatile antimicrobial compounds (headspace, PDA agar); type: cell-based; settings: volatile headspace exposure
Description: [The procedure below names another organism; the source lists this organism under the same test.] (§1) 12-well (6.5 ml volume per well) microtiter plates are used for the in vitro inhibition assay for volatile antimicrobial compounds. A 3-ml volume of full-strength Potato Dextrose Agar (PDA) is added to each well. After cooling, 1 μL of 1×10^5 spores per ml Botrytis cinerea (ATCC #204446) spore suspension is spot pipetted to the agar in the center of the well. Whatman #1 filter disks (1.5 cm; Cat. No. 1001-0155) are placed on the underside of a polyethylene PCR plate sealing film. For determination of the minimum inhibitory concentration (MIC), test compounds are diluted in acetone, in duplicate, and 50 μli of the compound solution is added to disks at concentrations that can vary from 0.001 mg/l to 1142.9 mg/l. The acetone is permitted to evaporate for 5 minutes. The headspace around the Botrytis cinerea inoculum is then sealed inside the well by the film with the adhering disk containing the antimicrobial, anti-decay, anti-spoilage, or pathogen control agent. Plates are inverted to prevent any possibility of the chemical from flaking from the disk and falling onto the inoculated agar.

Penicillium expansum = assay: as above; type: cell-based; settings: volatile headspace exposure
Description: [The procedure below names another organism; the source lists this organism under the same test.] as §1

[3] = tested on: Botrytis cinerea (ATCC #204446); assay: as above; type: cell-based; settings: for MIC / EC50: Botrytis cinerea, ATCC204446, 72 h, volatile headspace exposure, 3 days at 23° C.; for EC50: growth relative to control
Description: as §1

Monilinia fructicola = assay: as above; type: cell-based; settings: volatile headspace exposure
Description: [The procedure below names another organism; the source lists this organism under the same test.] as §1

Glomerella cingulata = assay: as above; type: cell-based; settings: Colletotrichum gloeosporioides; volatile headspace exposure
[4] = tested on: Botrytis cinerea (ATCC #204446); assay: Grape in vivo analysis, volatile bioassay on inoculated green table grape; set-up: species or system Botrytis cinerea on green table grape; settings: for antimicrobial activity against Botrytis cinerea in grape in vivo analysis: stem wound inoculated, 3 days treatment at 21° C. plus 3 days evaluation; for phytotoxicity in grape in vivo analysis: symptoms of phytotoxicity evaluated daily
Description: In order to assess the in vivo activity of volatile antimicrobial compounds, a volatile bioassay is developed using green table grape. Fruit are removed from the rachis, and 16 to 20 fruit are placed inside a 1 dry pint clamshell (Produce Packaging; Product #03231004KZ) with the stem wound facing upwards. The grapes are inoculated by pipetting 20 μL of 1×10^6 spore per ml Botrytis cinerea (ATCC #204446) into the stem wound. The clamshell is placed inside a 2.55 L plastic container (Snapware; Model #1098421). A Whatman #1 filter paper (4.25 cm; Cat. No. 1001-042) is placed on a watchglass, which is then placed on top of the closed clamshell lid. For determination of the MIC, test compounds are diluted in acetone, and 400 μl of the solution is added to disks, in duplicate, in a dose dependent manner (for example 0.4 to 50 mg/liter). The acetone is permitted to evaporate for 5 minutes. The plastic containers are then closed and placed for 3 days at 21° C. Clamshells are then removed from the treatment plastic container and placed into separate larger secondary containers for a further 3 days of evaluation at 21° C. During these 3 days, fruit are evaluated daily for incidence and severity of disease and symptoms of phytotoxicity.

| SMILES | EC50 (Alternaria alternata) | MIC (Alternaria alternata) | EC50 (Penicillium expansum) | MIC (Penicillium expansum) | MIC [3] | EC50 [3] | EC50 (Monilinia fructicola) | MIC (Monilinia fructicola) | EC50 (Glomerella cingulata) | MIC (Glomerella cingulata) | phytotoxicity in strawberry in vivo analysis [1] | antimicrobial activity against Botrytis cinerea in strawberry in vivo analysis [1] | antimicrobial activity against Escherichia coli (colony growth relative to control) [2] | antimicrobial activity against Botrytis cinerea in grape in vivo analysis [4] | phytotoxicity in grape in vivo analysis [4] | antimicrobial activity against Botrytis cinerea (in words) ([3]; in vitro analysis, b318 says Botrytis cinerea and/or other pathogens) |
| --- | --- | --- | --- | --- | --- | --- | --- | --- | --- | --- | --- | --- | --- | --- | --- | --- |
| CC(C)(COB1OCc2ccccc21)COB1OCc2ccccc21 [Compound 2, 1,1′-((2,2-dimethylpropane-1,3-diyl)bis(oxy))bis(1,3-dihydrobenzo[c][1,2]oxaborole)] | 2.3 µg/mL (≈ 6.85 µM) | 8.9 µg/mL (≈ 26.5 µM) | 12.2 µg/mL (≈ 36.3 µM) | 71.4 µg/mL (≈ 212 µM) |  |  |  |  | 9.1 µg/mL (≈ 27.1 µM) | 143 µg/mL (≈ 425 µM) |  |  |  |  |  |  |
| Fc1ccc2c(c1)COB2OCCOB1OCc2cc(F)ccc21 [Compound 7, 1,2-bis((5-fluorobenzo[c][1,2]oxaborol-1(3H)-yl)oxy)ethane] | 0.3 µg/mL (≈ 0.909 µM) | 2.2 µg/mL (≈ 6.67 µM) | < 0.6 µg/mL | 8.9 µg/mL (≈ 27 µM) | 0.6 µg/mL (≈ 1.82 µM) | 0.2 µg/mL (≈ 0.606 µM) |  | 2.2 µg/mL (≈ 6.67 µM) |  |  | no phytotoxicity | good antimicrobial activity | good antimicrobial activity | good antimicrobial activity | no phytotoxicity | excellent activity |
| CC(COB1OCc2cc(F)ccc21)OB1OCc2cc(F)ccc21 (stereo not shown) [Compound 11, 1,1′-(propane-1,2-diylbis(oxy))bis(5-fluoro-1,3-dihydrobenzo[c][1,2]oxaborole)] | 0.31 µg/mL (≈ 0.901 µM) | 1.1 µg/mL (≈ 3.2 µM) | < 0.6 µg/mL | 8.9 µg/mL (≈ 25.9 µM) | 0.6 µg/mL (≈ 1.74 µM) | 0.2 µg/mL (≈ 0.582 µM) | 0.2 µg/mL (≈ 0.582 µM) |  |  |  |  |  |  |  |  |  |
| Fc1ccc2c(c1)COB2OCCCOB1OCc2cc(F)ccc21 [Compound 13, 1,3-bis((5-fluorobenzo[c][1,2]oxaborol-1(3H)-yl)oxy)propane] |  |  | 0.8 µg/mL (≈ 2.33 µM) | 8.9 µg/mL (≈ 25.9 µM) | 0.3 µg/mL (≈ 0.872 µM) | 0.1 µg/mL (≈ 0.291 µM) |  |  |  |  | no phytotoxicity | good antimicrobial activity | good antimicrobial activity | good antimicrobial activity | no phytotoxicity |  |

More lines, in order of falling MIC (Penicillium expansum), values ahead:

| EC50 (Alternaria alternata) | MIC (Alternaria alternata) | EC50 (Penicillium expansum) | MIC (Penicillium expansum) | MIC [3] | EC50 [3] | EC50 (Monilinia fructicola) | MIC (Monilinia fructicola) | EC50 (Glomerella cingulata) | MIC (Glomerella cingulata) | SMILES | phytotoxicity in strawberry in vivo analysis [1] | antimicrobial activity against Botrytis cinerea in strawberry in vivo analysis [1] | antimicrobial activity against Escherichia coli (colony growth relative to control) [2] | antimicrobial activity against Botrytis cinerea in grape in vivo analysis [4] | phytotoxicity in grape in vivo analysis [4] | antimicrobial activity against Botrytis cinerea (in words) ([3]; in vitro analysis, b318 says Botrytis cinerea and/or other pathogens) |
| --- | --- | --- | --- | --- | --- | --- | --- | --- | --- | --- | --- | --- | --- | --- | --- | --- |
| < 0.6 µg/mL | 8.9 µg/mL (≈ 30.3 µM) | 2.5 µg/mL (≈ 8.51 µM) | 8.9 µg/mL (≈ 30.3 µM) | 2.2 µg/mL (≈ 7.48 µM) | 0.9 µg/mL (≈ 3.06 µM) | 6.8 µg/mL (≈ 23.1 µM) | 35.7 µg/mL (≈ 121 µM) | 11.1 µg/mL (≈ 37.8 µM) | 143 µg/mL (≈ 486 µM) | c1ccc2c(c1)COB2OCCOB1OCc2ccccc21 [Compound 1, 1,2-bis(benzo[c][1,2]oxaborol-1(3H)-yloxy)ethane] | no phytotoxicity | good antimicrobial activity | good antimicrobial activity | good antimicrobial activity | no phytotoxicity |  |
| 0.3 µg/mL (≈ 0.777 µM) | 2.2 µg/mL (≈ 5.7 µM) | 0.8 µg/mL (≈ 2.07 µM) | 4.5 µg/mL (≈ 11.7 µM) | 1.1 µg/mL (≈ 2.85 µM) | 0.3 µg/mL (≈ 0.777 µM) |  |  |  |  | CC(C)(OB1OCc2cc(F)ccc21)C(C)(C)OB1OCc2cc(F)ccc21 [Compound 9, 1,1′-((2,3-dimethylbutane-2,3-diyl)bis(oxy))bis(5-fluoro-1,3-dihydrobenzo[c][1,2]oxaborole)] | no phytotoxicity | good antimicrobial activity | good antimicrobial activity | good antimicrobial activity | no phytotoxicity |  |
